Source: patent US10131881B2, “Method for preparing induced pluripotency stem cells from mesenchymal stem cells by using phlorotannin fraction” (BBHC, priority 2014, dated 2018)
Several values for one entry are separate records, joined by “and”; a condition that tells them apart may be missing. Equal values may be shown once.

Columns and labels:
[1] = tested on: mesenchymal stem cells derived from human umbilical cord; experiment: Induction of pluripotency stem cells from mesenchymal stem cells (colony formation); format: cell-based; conditions: DMEM F-12 basic medium plus 0.1 v/v % energy water
Description: An experiment for measuring induction ability of pluripotency stem cells from mesenchymal stem cells derived from human umbilical cord according to a concentration of the phlorotannin fraction prepared in Example 1-1 was performed. In a control group, DMEM F-12 (Gibco) as a dedicated medium of MSC, 10% FBS, 100 unit/ml penicillin, and 50 μg/ml streptomycin were used as a basic medium (Normal), and in an experimental group, mesenchymal stem cells derived from human which was subjected to three sub-cultures were used and phlorotannin fractions having concentrations of 1 μg/ml, 20 μg/ml, 50 μg/ml, 100 μg/ml, 400 μg/ml, 800 μg/ml, and 1000 μg/ml and 0.1 v/v % energy water (purified deionized water containing SiO2, Al2O3, TiO3, Fe2O3, CaO, Na2O, K2O, and LiO, STC) were added in the medium. The mesenchymal stem cells derived from human umbilical cord were isolated and washed and mononuclear cells were inoculated in a 6-well plate (dish) with 1×10^4 cells and maintained and incubated at 37° C. and 5% CO2.
An experiment for measuring induction ability of pluripotency stem cells from mesenchymal stem cells derived from human according to a concentration of compound 1 among the compounds isolated in Example 1-2 was performed. […]

[2] = tested on: OCT4, SOX2, SSEA-4, and AP; experiment: Immunochemical / AP staining of induced colonies for pluripotency stem cell-specific markers; format: cell-based, human; conditions: confocal microscopy; antibodies for OCT4, SOX2, SSEA-4; AP fluorogenic dye
Description: With respect to the pluripotency stem cells induced by the method of the present invention, whether to express stage-specific embryonic antigen4 (SSEA-4), alkaline phosphatase (AP), OCT4, and SOX2 as specific proteins to embryonic stem cells was analyzed by using antibodies thereof and an immunochemical staining method. During the staining process, cells were first fixed by using 4% paraformaldehyde and washed with PBS, and blocked with a 1% BSA solution. The cells were treated with primary antibodies for OCT4, SOX2, and SSEA-4 and reacted at 4° C. for 18 hours, and then washed with PBS, treated with secondary antibodies with fluorescence (FITC) to the primary antibodies, and reacted at room temperature for 1 hour. The cells were washed with PBS and then the expression was analyzed by using a confocal microscope. […] AP staining was performed with an alkaline phosphatase cell-permeable fluorogenic substrate dye, the AP fluorogenic dye was diluted in a DMEM F-12 culture solution to be treated in colonies, and then reacted for 20 to 30 min, washed with the DMEM F-12 culture solution two times, and the expression was analyzed by using a confocal microscope, and the result was illustrated in FIG. 17. […]

Oc1cc(O)cc(Oc2c(O)cc(O)c3c2Oc2c(O)cc(O)c(-c4c(O)cc(O)c5c4Oc4c(O)cc(Oc6c(O)cc(O)cc6O)c(Oc6cc(O)cc(O)c6)c4O5)c2O3)c1 [compound 1, 2-O-(2,4,6-trihydroxyphenyl)-6,6′-bieckol]
time after which colony formation was observed ([1]; at the colony-forming concentrations): 14 days | concentration at which colonies were formed ([1]; tested 1, 20, 50, 100, 400, 800, 1000 μg/ml, colonies only at stated concentrations): 50 µg/mL and 100 µg/mL | staining of colonies by pluripotency stem cell-specific markers [2]: stained by OCT4, SOX2, SSEA-4, and AP
